For three compounds, Ki results are on record in BindingDB's records for doi:10.1074/jbc.M113.453423 (Université Montpellier 1, 2013).

Holding throughout (experiment): GHS Ligand Binding Assay
The target of test [1] is Growth hormone secretagogue receptor type 1 (Homo sapiens, UniProt Q92847). How it is done: (§1) Titration experimentswere carried out with protein concentrations in the 10 nM protein concentration range and increasing ligand concentrations. […] Buffer contributions were systematically subtracted.
Growth hormone secretagogue receptor type 1, sequence (Q92847 whole entry): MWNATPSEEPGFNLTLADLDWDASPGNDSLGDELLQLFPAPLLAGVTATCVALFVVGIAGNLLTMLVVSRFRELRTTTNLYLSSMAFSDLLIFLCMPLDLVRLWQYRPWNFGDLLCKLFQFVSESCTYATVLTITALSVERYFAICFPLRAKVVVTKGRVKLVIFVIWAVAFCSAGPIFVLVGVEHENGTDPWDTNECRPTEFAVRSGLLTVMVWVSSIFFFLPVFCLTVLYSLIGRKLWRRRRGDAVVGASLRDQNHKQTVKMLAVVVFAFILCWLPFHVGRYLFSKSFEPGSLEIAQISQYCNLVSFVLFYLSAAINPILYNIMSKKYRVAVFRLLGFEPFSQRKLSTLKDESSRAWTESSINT
Test [2] deals with Dimer of Growth hormone secretagogue receptor type 1 (Homo sapiens, UniProt Q92847). How it is done: as §1
Dimer of Growth hormone secretagogue receptor type 1, sequence (Q92847 whole entry, canonical isoform): as the sequence (Q92847 whole entry) above
Test [3] deals with Growth hormone secretagogue receptor type 1/Isoform 1B of Growth hormone secretagogue receptor type 1 (1B) (Homo sapiens, UniProt Q92847). As to the method:
as §1

Each structure is given as a SMILES string. pKi: −log10 of the molar value. Where a SMILES comes first, the peptide text is derived from it. [ ]: non-standard residue; d: D form.

Growth hormone secretagogue receptor type 1/Isoform 1B of Growth hormone secretagogue receptor type 1 (1B), sequence (Q92847 whole entry, canonical isoform): as the sequence (Q92847 whole entry) above
Growth hormone secretagogue receptor type 1/Isoform 1B of Growth hormone secretagogue receptor type 1 (1B), sequence (Q92847 as listed by the source): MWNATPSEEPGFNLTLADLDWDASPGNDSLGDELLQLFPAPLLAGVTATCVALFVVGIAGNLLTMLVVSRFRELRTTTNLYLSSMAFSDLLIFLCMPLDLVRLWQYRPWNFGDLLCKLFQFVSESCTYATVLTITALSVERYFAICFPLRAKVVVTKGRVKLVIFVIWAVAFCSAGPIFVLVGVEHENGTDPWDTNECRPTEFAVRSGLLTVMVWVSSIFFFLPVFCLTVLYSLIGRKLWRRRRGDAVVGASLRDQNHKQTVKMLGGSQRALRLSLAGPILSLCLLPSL

As to `COc1ccc(Cn2c(CCc3c[nH]c4ccccc34)nnc2C(Cc2c[nH]c3ccccc23)NC(=O)c2ccccn2)c(OC)c1` (configuration not stated) [JMV 3011], in test [1], the pKi (as a rule, the Ki on a negative log10 scale, so that one unit is a factor of ten) was 8.08.

`CC(C)C[C@H](NC(=O)[C@H](CC(C)C)NC(=O)[C@@H](Cc1c[nH]c2ccccc12)NC(=O)[C@H](Cc1ccccc1)NC(=O)[C@@H](Cc1c[nH]c2ccccc12)NC(=O)[C@H](CCC(N)=O)NC(=O)[C@@H](Cc1c[nH]c2ccccc12)NC(=O)[C@@H]1CCCN1C(=O)[C@H](CCCCN)NC(=O)[C@@H]1CCCN1C(=O)[C@H](N)CCCN=C(N)N)C(N)=O` [Substance P [DArg1, DTrp5,7,9,  Leu11]] (H-[dR]PKP[dW]Q[dW]F[dW]LL-NH2): the values for the pKi in test [2], in test [1] and in test [3] were 6.54, 6.53 and 6.53, respectively.

Turning to `COc1ccc(Cn2c(CCc3ccccc3)nnc2C(Cc2c[nH]c3ccccc23)NC(=O)c2ccccn2)c(OC)c1` (configuration not stated) [JMV 3002], the pKi in test [2] was 8.00; in test [1], 8.04; in test [3], 7.71.
